Series [1] is described as follows: refractive index (Na D-line) (dimensionless). The settings on record: 298.15 K; 101.33 kPa; Liquid; Standard Abbe refractometry.
The conditions of series [2]: 298.15 K; 101.33 kPa; Liquid; Vibrating tube method.
Series [3] can be described thus: wn = mass fraction of the nth substance listed. The settings on record: 298.15 K, 101 kPa, Liquid, Vibrating tube method.

The results in this text go back to the NIST ThermoML archive (doi:10.1016/j.jct.2011.11.027).

± gives the expanded uncertainty stated by the source.

As usually defined, the refractive index is the speed of light in vacuum divided by its phase velocity in the sample. The mass density is the mass of a sample divided by its volume. Turning to `CCCC[N+]1(C)CCCC1.O=S(=O)([N-]S(=O)(=O)C(F)(F)F)C(F)(F)F`, the refractive index in series [1] was 1.42302 ± 0.00042. The mass density in series [2] came out at 1394.66 ± 0.58 kg/m3.
In the case of `CCCC[N+]1(C)CCCC1.O=S(=O)([O-])C(F)(F)F` [1-butyl-1-methylpyrrolidinium trifluoromethanesulfonate], the refractive index in series [1] turned out to be 1.43287 ± 0.00042. For the same compound, the mass density in series [2] amounted to 1252.71 ± 0.45 kg/m3.
Regarding `C1CCCCC1` [cyclohexane] + CCCCCCC, the mass density in series [3] (w2 = 0) was 773.88 ± 0.13 kg/m3; in series [3] (w2 = 0.0503) it was 766.95 ± 0.14 kg/m3; in series [3] (w2 = 0.0991) it was 760.53 ± 0.14 kg/m3; in series [3] (w2 = 0.2021) it was 748.16 ± 0.14 kg/m3; in series [3] (w2 = 0.3118) it was 735.69 ± 0.15 kg/m3; in series [3] (w2 = 0.3926), 726.61 ± 0.15 kg/m3. Besides, the mass density worked out at 717.21 ± 0.16 kg/m3 in series [3] (w2 = 0.5039); 703.79 ± 0.16 kg/m3 in series [3] (w2 = 0.666); 700.61 ± 0.17 kg/m3 in series [3] (w2 = 0.7062); 692.71 ± 0.17 kg/m3 in series [3] (w2 = 0.8061); 685.62 ± 0.18 kg/m3 in series [3] (w2 = 0.9061); 682.6 ± 0.18 kg/m3 in series [3] (w2 = 0.9539).
As for `CCCCCCC` [heptane] + C1CCCCC1, the mass density in series [3] (w1 = 1) stood at 679.57 ± 0.18 kg/m3.
